Measurements: article PMC2248166, “Quantitative peptide binding motifs for 19 human and mouse MHC class I molecules derived using positional scanning combinatorial peptide libraries” (Immunome Research, 2008)

Columns and labels:
Assay type in all cases: binding
HLA B*5301 = HLA B*5301 (Homo sapiens, UniProt P01889, A329T/A93T/A95T/C349S/D201E/D98Y/E176V/E187L/E204Q/E69T/G107R/I218V/K202T/L105A/L119I/N104I/Q94N/R106L/R155S/R180L/S101N/S121R/S35A/S48A/T118I/V127L/V306I/V36M/Y140S/Y91F)
HLA B*5401 = HLA B*5401 (Homo sapiens, UniProt P01889, A329T/C349S/D138N/D201E/E176V/E187T/E204Q/E69G/I76V/K202T/L119W/R155S/R180L/S121T/S35A/S48A/V127L/V306I/V36M/Y140L)
HLA B*3501 = HLA B*3501 (Homo sapiens, UniProt P01889, A329T/A93T/A95T/C349S/D201E/D98Y/E176V/E187L/E204Q/E69T/I218V/K202T/L119I/Q94N/R155S/R180L/S121R/S35A/S48A/T118I/V127L/V306I/V36M/Y140S/Y91F)
HLA B*0801 = HLA B*0801 (Homo sapiens, UniProt P01889, A93T/A95T/D138N/E176V/E187T/K202T/Q94N/R180D/S35A/V36M/Y33D/Y91F); assay: biochemical
HLA B*5802 = HLA B*5802 (Homo sapiens, UniProt P01889, A329T/C349S/D201E/D98Y/E176V/E187L/E204Q/E69T/G107R/I218V/I90N/K202T/L105A/N104I/N87E/Q89R/Q94S/R106L/R155S/R180L/R86G/S101N/S121W/S35A/S48A/V127L/V306I/V36M/Y140S/Y91M)
HLA B*5801 = HLA B*5801 (Homo sapiens, UniProt P01889, A329T/C349S/D201E/D98Y/E176V/E187L/E204Q/E69T/G107R/I218V/I90N/K202T/L105A/L119I/N104I/N87E/Q89R/Q94S/R106L/R155S/R180L/R86G/S101N/S121R/S35A/S48A/T118I/V127L/V306I/V36M/Y140S/Y91M)
H-2 K^k = H-2 K^k (Mus musculus, UniProt P04223)
Chain of H-2 K^k (P01887 21-119): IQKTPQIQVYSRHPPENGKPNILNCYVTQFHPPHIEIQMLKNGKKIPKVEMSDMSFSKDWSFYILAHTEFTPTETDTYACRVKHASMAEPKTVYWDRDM
Chain of H-2 K^k (P04223 22-369): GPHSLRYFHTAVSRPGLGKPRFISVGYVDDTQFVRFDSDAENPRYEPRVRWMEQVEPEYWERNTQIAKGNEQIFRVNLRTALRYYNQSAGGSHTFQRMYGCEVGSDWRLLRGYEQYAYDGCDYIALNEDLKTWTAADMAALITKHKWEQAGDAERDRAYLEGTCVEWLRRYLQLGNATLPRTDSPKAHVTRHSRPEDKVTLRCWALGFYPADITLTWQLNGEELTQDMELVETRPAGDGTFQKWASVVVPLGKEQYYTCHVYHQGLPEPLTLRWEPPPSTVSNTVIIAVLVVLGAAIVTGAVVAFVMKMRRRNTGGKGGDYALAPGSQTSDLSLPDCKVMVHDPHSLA

HLA A*3201 = HLA A*3201 (Homo sapiens, UniProt P04439, A270S/D101S/D185E/E176V/E277Q/F133L/G103R/G107R/G231S/H175R/I121M/I218V/I322F/K168Q/L105A/L300P/L318F/M331R/P208A/P217A/Q94H/R106L/R138Q/S129P/T104I/T323A/T345S/V100E/V321M/V358M); assay: biochemical
HLA B*5101 = HLA B*5101 (Homo sapiens, UniProt P01889, A329T/A93T/A95T/C349S/D138N/D201E/D98Y/E187L/E204Q/E69T/G107R/I218V/K202T/L105A/L119W/N104I/Q94N/R106L/R155S/R180L/S101N/S121T/S35A/S48A/V306I/V36M/Y195H/Y91F)
HLA A*3001 = HLA A*3001 (Homo sapiens, UniProt P04439, D140H/D185E/E176W/F33S/G80R/H175R/K168Q/R138E/R41S); assay: biochemical
H-2 K^d = H-2 K^d (Mus musculus, UniProt P01902)
Chain of H-2 K^d (P01887 21-119): as the sequence (P01887 21-119) above
Chain of H-2 K^d (P01902 22-368): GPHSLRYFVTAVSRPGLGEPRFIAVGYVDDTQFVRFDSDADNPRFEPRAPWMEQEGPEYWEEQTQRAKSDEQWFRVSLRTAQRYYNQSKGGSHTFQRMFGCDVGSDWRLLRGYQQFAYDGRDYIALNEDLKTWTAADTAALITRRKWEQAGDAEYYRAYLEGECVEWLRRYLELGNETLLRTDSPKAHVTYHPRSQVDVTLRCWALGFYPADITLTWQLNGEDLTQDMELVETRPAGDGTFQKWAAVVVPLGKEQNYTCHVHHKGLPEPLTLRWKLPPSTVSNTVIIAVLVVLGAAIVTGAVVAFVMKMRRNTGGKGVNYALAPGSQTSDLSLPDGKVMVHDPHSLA

HLA B*1501 = HLA B*1501 (Homo sapiens, UniProt P01889, A329T/A93T/A95T/C349S/D201E/D98Y/E187L/E204Q/E69M/E70A/K202T/N87E/Q94N/R155S/R180W/S121R/S35A/S48A/V306I/V36M/Y140S/Y91S); assay: biochemical
HLA B*1503 = HLA B*1503 (Homo sapiens, UniProt P01889, A329T/A93T/A95T/C349S/D201E/D98Y/E187L/E204Q/K202T/N87E/Q94N/R155S/R180L/S121R/S35A/V306I/V36M/Y140S/Y91S); assay: biochemical
H-2 D^d = H-2 D^d (Mus musculus, UniProt P01900)
Chain of H-2 D^d (P01900 whole entry, looked up): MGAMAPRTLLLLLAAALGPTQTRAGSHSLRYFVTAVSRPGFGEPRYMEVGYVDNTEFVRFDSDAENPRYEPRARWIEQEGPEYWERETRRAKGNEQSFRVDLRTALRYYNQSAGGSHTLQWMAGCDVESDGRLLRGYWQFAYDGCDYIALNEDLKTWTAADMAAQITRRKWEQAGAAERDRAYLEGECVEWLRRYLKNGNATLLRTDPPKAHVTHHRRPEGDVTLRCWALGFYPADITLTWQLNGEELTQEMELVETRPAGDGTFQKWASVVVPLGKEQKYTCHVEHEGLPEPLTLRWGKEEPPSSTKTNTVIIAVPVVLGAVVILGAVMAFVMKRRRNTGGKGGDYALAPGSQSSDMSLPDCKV

H-2 D^b = H-2 D^b (Mus musculus, UniProt P01899)
Chain of H-2 D^b (P01887 21-119): as the sequence (P01887 21-119) above
Chain of H-2 D^b (P01899 25-362): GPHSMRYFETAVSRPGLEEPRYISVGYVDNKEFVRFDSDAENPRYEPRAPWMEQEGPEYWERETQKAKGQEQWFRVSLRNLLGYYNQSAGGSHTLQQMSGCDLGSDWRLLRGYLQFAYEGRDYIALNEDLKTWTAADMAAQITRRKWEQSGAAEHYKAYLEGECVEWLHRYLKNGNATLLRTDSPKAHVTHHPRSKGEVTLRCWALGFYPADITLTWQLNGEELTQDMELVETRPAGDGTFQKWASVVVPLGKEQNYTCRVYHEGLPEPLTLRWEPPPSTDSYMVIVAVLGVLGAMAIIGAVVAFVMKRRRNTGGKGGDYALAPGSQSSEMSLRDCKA

HLA A*6802 = HLA A*6802 (Homo sapiens, UniProt P04439, A269V/D140Y/D185E/E176V/E277Q/E87N/F33Y/G231S/I121R/I166T/I218V/L180W/L300P/L318F/N151K/P208A/P217A/Q86R/R138H/R169H/S129P/T345S/V36M)

Sequence	Normalized average relative binding affinity(ARB) (HLA B*5301)	Normalized average relative binding affinity(ARB) (HLA B*5401)	Normalized average relative binding affinity(ARB) (HLA B*3501)	Normalized average relative binding affinity(ARB) (HLA B*0801)	Normalized average relative binding affinity(ARB) (HLA B*5802)	Normalized average relative binding affinity(ARB) (HLA B*5801)	Normalized average relative binding affinity(ARB) (H-2 K^k)	Normalized average relative binding affinity(ARB) (HLA A*3201)	Normalized average relative binding affinity(ARB) (HLA B*5101)	Normalized average relative binding affinity(ARB) (HLA A*3001)	Normalized average relative binding affinity(ARB) (H-2 K^d)	Normalized average relative binding affinity(ARB) (HLA B*1501)	Normalized average relative binding affinity(ARB) (HLA B*1503)	Normalized average relative binding affinity(ARB) (H-2 D^d)	Normalized average relative binding affinity(ARB) (H-2 D^b)	Normalized average relative binding affinity(ARB) (HLA A*6802)
XXXXXXPXX [3064.0133]	0.50	0.32	0.31	0.36	1.0	0.22	0.10	0.088	0.53	1.0	0.021	0.62	0.16	0.020	0.26	0.37
XXXXXXAXX [3064.0121]	0.31	0.45	0.22	0.44	0.032	0.0045	0.12	0.20	0.24	0.12	0.17	0.69	0.0014	0.037	0.65	0.37
XXXXXXXMX [3064.0151]	0.33	0.045	0.28	0.24	0.32	0.18	0.49	0.52	0.32	0.14	0.43	0.061	0.14	0.47	0.17	0.16
XXXXXKXXX [3064.0109]	0.15	0.62	0.14	0.073	0.21	0.13	0.34	0.30	0.54	0.10	0.36	0.28	0.26	0.30	0.51	0.24
XXXXTXXXX [3064.0097]	0.11	0.085	0.21	0.011	0.16	0.33	0.16	0.062	0.51	0.18	0.42	0.62	0.43	0.18	0.018	0.044
XXXWXXXXX [3064.0079]	1.0	1.0	0.32	0.68	0.72	0.33	1.0	0.29	0.82	0.45	0.040	0.39	0.63	0.54	0.56	0.56
